Square brackets hold non-standard residues; d marks the D form. Peptide text beside a SMILES is read from it. * marks the point of attachment. X1 = CCN(CC)c1ccc2c(-c3ccc(NC(=S)*)cc3C(=O)[O-])c3ccc(=[N+](CC)CC)cc-3oc2c1; pS = N[C@@H](COP(=O)(O)O)C(=O)O; AEA = NCCOCC(=O)O
Legend:
[1] = Partitioning of autofluorescent chiglitazar into condensates by confocal fluorescence; format: physicochemical; conditions: 10 µM, intensity inside condensates versus dilute solution
PPARγ/PRIPRAP [2] = assay: Fluorescence anisotropy titration of PPARγ to PRIPRAP peptide with PPAR ligands; format: binding; conditions: FA, PPARγ titrated to PRIPRAP peptide
Text: to prevent aspecific hydrophobic interactions.
4-parameter logistic model . The resulting KD or KDapp obtained from the fit is shown as mean with the

PPARγ/PRIPRAP [3] = biological target: T1, PPARγ/PRIPRAP (Homo sapiens, UniProt P37231); assay: Confocal microscopy of PRIPRAP coregulator recruitment to PPARγ-loaded condensates; format: biochemical; conditions: 100 nM PRIPRAP; for PRIPRAP recruitment to PPARγ-loaded condensates relative to DMSO control: 10 μM ligand, 400 nM PPARγ, overnight
T1 construct: made in house; host or cells: bacterial culture with IPTG induction

PPARγ/MED1 DRIP-2 = biological target: T2, PPARγ/MED1 DRIP-2 (Homo sapiens, UniProt P37231); assay: Tesaglitazar-dependent recruitment of MED1 DRIP-2 to PPARγ-loaded condensates; format: biochemical
T2 construct: made in house; host or cells: bacterial culture with IPTG induction
T2 sequence (P37231 238-503 limits assumed): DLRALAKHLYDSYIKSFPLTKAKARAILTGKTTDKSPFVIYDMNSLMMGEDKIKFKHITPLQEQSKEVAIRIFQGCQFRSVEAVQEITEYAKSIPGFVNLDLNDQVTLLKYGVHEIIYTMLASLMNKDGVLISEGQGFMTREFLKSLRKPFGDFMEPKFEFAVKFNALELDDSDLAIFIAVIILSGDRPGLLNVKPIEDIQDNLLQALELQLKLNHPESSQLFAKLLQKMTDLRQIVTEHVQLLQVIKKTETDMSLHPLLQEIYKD
Procedure: (§1) The dose dependence of the PPI formation was studied using tesaglitazar (Figures 6g, S24 and S25). Here, we found a significant effect in PPI stabilization in the condensates at 10 μM compound. […].

PPARγ/EP300 = biological target: T3, PPARγ/EP300 (Homo sapiens, UniProt P37231); assay: Tesaglitazar-dependent recruitment of EP300 to PPARγ-loaded condensates; format: biochemical
T3 construct: made in house; host or cells: bacterial culture with IPTG induction
T3 sequence (P37231 238-503 limits assumed): T2 sequence (P37231 238-503 limits assumed)
Procedure: as §1

[4] = biological target: 14-3-3σ/CIP2A interaction (Homo sapiens, UniProt P31947); assay: Confocal microscopy of CIP2A client recruitment to 14-3-3σ-loaded synthetic condensates; format: biochemical; conditions: 100 nM CIP2A; for enhancement of CIP2A recruitment at 100 μM molecular glue: 100 μM compound
14-3-3γ/ERRγ interaction [5] = biological target: T4, 14-3-3γ/ERRγ interaction (Homo sapiens, UniProt P61981); assay: Split luciferase assay inside condensates; format: biochemical; conditions: 250 pM LgBiT-ERRγ, 250 pM 14-3-3γ-SmBiT, 100 μM compound, 50 μM TCEP, overnight
T4 construct: made in house; host or cells: E. coli BL21(DE3)
T4 sequence (P61981 2-238 limits assumed): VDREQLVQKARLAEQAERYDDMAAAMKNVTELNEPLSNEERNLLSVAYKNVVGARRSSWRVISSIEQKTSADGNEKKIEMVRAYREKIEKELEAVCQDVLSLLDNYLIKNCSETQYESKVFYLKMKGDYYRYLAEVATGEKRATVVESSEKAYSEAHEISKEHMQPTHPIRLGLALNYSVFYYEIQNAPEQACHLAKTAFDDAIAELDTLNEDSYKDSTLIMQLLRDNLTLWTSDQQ

14-3-3γ/ERRγ interaction [6] = tested on: 14-3-3γ/ERRγ interaction; design: method as in PMID 36926879; conditions: cited from earlier work
14-3-3σ = biological target: T5, 14-3-3σ (Homo sapiens, UniProt P31947); assay: Fluorescence anisotropy protein titration of 14-3-3σ to HSPB6 peptide; format: binding
T5 sequence (P31947 1-248): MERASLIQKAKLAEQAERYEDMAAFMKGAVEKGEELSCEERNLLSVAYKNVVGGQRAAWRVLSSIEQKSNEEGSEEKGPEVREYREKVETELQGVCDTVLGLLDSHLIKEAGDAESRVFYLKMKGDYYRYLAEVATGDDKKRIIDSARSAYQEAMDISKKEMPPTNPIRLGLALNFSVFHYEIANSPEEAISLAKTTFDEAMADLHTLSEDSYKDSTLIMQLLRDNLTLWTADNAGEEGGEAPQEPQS

14-3-3γ/ERRγ = 14-3-3γ/ERRγ (Homo sapiens, UniProt P61981); assay: pH-dependent fluorescence anisotropy titration of 14-3-3γ to FAM-labeled ERRγ peptide; format: binding; conditions: 100 µM compound
Procedure: page 10: acetonitrile was used. […] Fluorescence anisotropy (FA) assays […] labeled peptides. […] (1 picture or pasted object on this page, not shown here) page 23: Table S5. […] compound R1. Data obtained from a fit using a four-parameter logistic model to determine KD or KDapp values as 95% confidence interval. The mean s were used for the calculation of the stabilization factor. pH DMSO: KD at 24 h (μM) Compound […] 24 h (μM) Stabilization factor […] 8.0 4.3-8.6 0.054-0.061 103 […] Figure S16. a) Schematic overview of mCherryEA structure and uptake into synthetic condensates. The […] 552 nm, with collection of emission between 562-700 nm in both settings . c) Confocal micrographs of condensates prepared at different pH (bulk pH values shown), with 500 nM of mCherryEA. Excitation was performed at 488 nm or 552 nm, with collection of emission between 562 -700 nm in both settings. d) Plot of the determined local pH values in the condensates relative to the buffer pH (bulk), as determined from the samples in pa nel c and the calibration curve. (1 picture or pasted object on this page, not shown here)

14-3-3γ/ERRγ interaction [7] = biological target: T6, 14-3-3γ/ERRγ interaction (Homo sapiens, UniProt P61981); assay: Confocal microscopy of FITC-ERRγ recruitment to 14-3-3γ-loaded condensates; conditions: 100 µM compound, 100 nM FITC-ERRγ
T6 sequence (P61981 1-247): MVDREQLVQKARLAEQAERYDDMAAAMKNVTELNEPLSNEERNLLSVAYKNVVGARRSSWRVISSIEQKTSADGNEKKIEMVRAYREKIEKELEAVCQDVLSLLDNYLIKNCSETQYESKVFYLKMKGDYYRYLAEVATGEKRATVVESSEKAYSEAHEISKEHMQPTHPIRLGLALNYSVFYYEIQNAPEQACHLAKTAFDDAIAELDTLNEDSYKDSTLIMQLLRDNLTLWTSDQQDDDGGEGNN

[8] = LC-MS assay for partitioning of small molecules between bulk and condensate phase; format: physicochemical; conditions: 100 µM FC, 2 h equilibration
14-3-3σ/HSPB6 = biological target: T7, 14-3-3σ/HSPB6 (Homo sapiens, UniProt P31947); assay: Competition of molecular glue with HSPB6 for 14-3-3σ binding in condensates (confocal microscopy); format: biochemical; conditions: 14-3-3σ-loaded condensates with HSPB6, overnight
T7 sequence (P31947 1-248): T5 sequence (P31947 1-248)

apo 14-3-3σ = biological target: apo 14-3-3σ; design: method as in PMID 30996864; conditions: read-out: KD^II (intrinsic affinity for apo 14-3-3σ); cited from earlier work
PPARγ/PRIPRAP [9] = biological target: T8, PPARγ/PRIPRAP (Homo sapiens, UniProt P37231); assay: Confocal microscopy of PRIPRAP coregulator recruitment to PPARγ-loaded condensates; format: biochemical; conditions: GW9662 10 μM + tesaglitazar 10 μM
T8 construct: made in house; host or cells: bacterial culture with IPTG induction
T8 sequence (P37231 235-505): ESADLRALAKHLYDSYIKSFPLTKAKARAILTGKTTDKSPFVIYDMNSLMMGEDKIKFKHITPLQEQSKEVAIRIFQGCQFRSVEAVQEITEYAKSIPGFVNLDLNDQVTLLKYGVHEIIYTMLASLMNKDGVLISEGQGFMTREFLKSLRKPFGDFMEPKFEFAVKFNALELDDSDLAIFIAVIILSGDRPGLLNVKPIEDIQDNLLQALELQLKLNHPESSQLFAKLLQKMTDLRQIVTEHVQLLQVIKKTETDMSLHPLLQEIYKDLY

Work on chiglitazar yielded a partitioning coefficient [1] of 23 ± 4.

For `CCO[C@@H](Cc1ccc(OCCc2ccc(OS(C)(=O)=O)cc2)cc1)C(=O)O` [Tesaglitazar], the “SF100 μM (stabilization factor, fold change in KD^app in the presence of the compound)” value (PPARγ/PRIPRAP [2]) was 19, the “PRIPRAP recruitment to PPARγ-loaded condensates relative to DMSO control” value (PPARγ/PRIPRAP [3]) was “significant recruitment of PRIPRAP” and the “compound concentration with significant effect in PPI stabilization in the condensates” value (PPARγ/PRIPRAP [3]; dose dependence) was 10 µM. The “ligand-mediated stabilization of PPARγ/MED1 DRIP-2 in condensates” value (PPARγ/MED1 DRIP-2) was “ligand-mediated stabilization of the PPI was observed” and the “ligand-mediated stabilization of PPARγ/EP300 in condensates” value (PPARγ/EP300) was “ligand-mediated stabilization of the PPI was observed”.

For `COCC1CCC2C1=CC1(C)C(=C(C(C)C)C3CCOC31)C(OC1OC3COC(C)(C)OC3C(O)C1O)C(O)C2C` (stereo not shown) [FC-THF], the “enhancement of CIP2A recruitment at 100 μM molecular glue” value (shortened to “enhancement of CIP2A recruitment”) [4] was “significant enhancement of CIP2A recruitment”.

In the case of `CN(C)CCSSCCN(C)C(=O)c1ccc(C=O)cc1` [Compound R2], the “bioluminescence signal in split luciferase assay inside condensates” value (“bioluminescence signal” below) (14-3-3γ/ERRγ interaction [5]) is listed as “significantly enhanced bioluminescence signal” and the “SF100μM (stabilization factor at 100 μM compound concentration)” value (from here on “SF100μM”) (14-3-3γ/ERRγ interaction [6]) is listed as 10.

For `CN(C)CCSSCCN(C)C(=O)c1cc(Br)cc(C=O)c1` [Compound R3], the “bioluminescence signal” value (14-3-3γ/ERRγ interaction [5]) is given as “significantly enhanced bioluminescence signal” and the “SF100μM” value (14-3-3γ/ERRγ interaction [6]) is given as 37.

With `CCN(CC)c1ccc2c(-c3ccc(NC(=S)NCCOCC(=O)N[C@@H](Cc4c[nH]c5ccccc45)C(=O)N[C@@H](CC(C)C)C(=O)N[C@@H](CCCNC(=N)N)C(=O)N[C@@H](CCCNC(=N)N)C(=O)N[C@@H](C)C(=O)N[C@@H](COP(=O)(O)O)C(=O)N[C@@H](C)C(=O)N4CCC[C@H]4C(=O)N[C@@H](CC(C)C)C(=O)N4CCC[C@H]4C(=O)NCC(=O)N[C@@H](CC(C)C)C(=O)N[C@@H](CO)C(=O)N[C@@H](C)C(=O)N4CCC[C@H]4C(N)=O)cc3C(=O)[O-])c3ccc(=[N+](CC)CC)cc-3oc2c1` [HSPB6] ({X1-AEA}-WLRRA[pS]APLPGLSAP-NH2; C-terminus assumed) the “fold lower KD for 14-3-3σ than CIP2A in dilute solution” value (14-3-3σ) was greater than 10 fold.

For `CN(C)CCSSCCN(C)C(=O)c1cccc(C=O)c1` [Compound R1], the “bioluminescence signal” value (14-3-3γ/ERRγ interaction [5]) was “significantly enhanced bioluminescence signal”, the Stabilization factor (14-3-3γ/ERRγ; pH 6.5, 24 h) was 3 and the Stabilization factor (14-3-3γ/ERRγ; pH 7.0, 24 h) was 8. The Stabilization factor (14-3-3γ/ERRγ; pH 7.5, 24 h) was 40, the Stabilization factor (14-3-3γ/ERRγ; pH 8.0, 24 h) was 103 and the Stabilization factor (14-3-3γ/ERRγ; pH 8.5, 24 h) was 152. For the same compound, the “SF100μM” value (14-3-3γ/ERRγ interaction [6]) was 21 and the “ERRγ recruitment to condensates over time” value (14-3-3γ/ERRγ interaction [7]) was “reacts over time to yield ERRy recruitment”.

For `C=CC(C)(C)OCC1OC(OC2C3=C(C(C)COC(C)=O)CC(O)C3(C)C=C3C(COC)CCC3C(C)C2O)C(O)C(O)C1O` (stereo not shown) [FC, Fusicoccin A], the “partitioning coefficient to the condensate phase” value [8] was 0.96 ± 0.02.

For `CN(C)CCSSCCN(C)C(=O)c1cccc(F)c1` [Compound R4], the “SF100μM” value (14-3-3γ/ERRγ interaction [6]) is given as 5.

In the case of `C=CC(C)(C)OC[C@H]1O[C@H](O[C@@H]2C3=C([C@H](C)CN4CCCCC4)C[C@H](O)[C@]3(C)/C=C3/[C@@H](COC)CC[C@H]3[C@@H](C)[C@H]2O)[C@H](O)[C@@H](O)[C@@H]1O` [FC-31], the “enhancement of CIP2A recruitment” value [4] is reported as “significant enhancement of CIP2A recruitment”.

In the case of `C=CC(C)(C)OC[C@H]1O[C@H](O[C@@H]2C3=C(C(C)C)C[C@H](O)[C@]3(C)/C=C3/[C@@H](COC)CC[C@H]3[C@@H](C)[C@H]2O)[C@H](O)[C@@H](O)[C@@H]1O` [FC-J], the “enhancement of CIP2A recruitment” value [4] is reported as “differentiated performance between the FA assay and the condensates”.

For `C=CC(C)(C)OC[C@H]1O[C@H](O[C@@H]2C3=C([C@H](C)CNC(C)=O)C[C@H](O)[C@]3(C)/C=C3/[C@@H](COC)CC[C@H]3[C@@H](C)[C@H]2O)[C@H](O)[C@@H](O)[C@@H]1O` [FC-NAc], the “enhancement of recruitment of CIP2A at 1 μM molecular glue” value ([4]; 1 μM compound) is given as “significant enhancement of recruitment”, the “competition with HSPB6 for 14-3-3 binding in condensates” value (14-3-3σ/HSPB6) is given as “significant competition with HSPB6” and the Kd (apo 14-3-3σ) is given as 10 µM.

In the case of `O=C(Nc1ccccc1)c1cc([N+](=O)[O-])ccc1Cl` [GW9662], the “PRIPRAP recruitment to PPARγ-loaded condensates relative to DMSO control” value (PPARγ/PRIPRAP [3]) is reported as “did not influence PRIPRAP recruitment” and the “effect of antagonist in codosing with tesaglitazar on PRIPRAP recruitment” value (PPARγ/PRIPRAP [9]) is reported as “inhibited the stabilizing effect of tesaglitazar”.

In the case of `CN(C)CCN(C)C(=O)c1ccc(C=O)c(F)c1` [Compound R5], the “bioluminescence signal” value (14-3-3γ/ERRγ interaction [5]) is listed as “no change in the bioluminescence” and the “SF100μM” value (14-3-3γ/ERRγ interaction [6]) is listed as 1.
